Laboratory results reported in patent US11407715B2, “Substituted indoline derivatives as dengue viral replication inhibitors” (JANSSEN PHARMACEUTICALS, INC., priority 2017, dated 2022).
pEC50: −log10 of the molar value.

Assays:
DENV-4 strain H241 = experiment: Tetravalent RT-qPCR assay, serotype 4; assay type: cell-based, Dengue virus; details: RT-qPCR serotype 4 H241, Vero cells
Protocol: (§1) The antiviral activity of the compounds of the invention was tested against DENV-1 strain TC974#666 (NCPV), DENV-2 strain 16681, DENV-3 strain H87 (NCPV) and DENV-4 strain H241 (NCPV) in a RT-qPCR assay. Therefore, Vero cells were infected with either DENV-1, or -2, or -3, or -4 in the presence or absence of test compounds. At day 3 post-infection, the cells were lysed and cell lysates were used to prepare cDNA of both a viral target (the 3′UTR of DENV; Table 2) and a cellular reference gene (β-actin, Table 2). Subsequently, a duplex real time PCR was performed on a Lightcycler480 instrument. The generated Cp value is inversely proportional to the amount of RNA expression of these targets. Inhibition of DENV replication by a test compound results in a shift of Cp's for the 3′UTR gene. On the other hand, if a test compound is toxic to the cells, a similar effect on β-actin expression will be observed. The comparative ΔΔCp method is used to calculate ECs50, which is based on the relative gene expression of the target gene (3′UTR) normalized with the cellular housekeeping gene (β-actin). In addition, CC50 values are determined based on the Cp values acquired for the housekeeping gene β-actin.
(§2) The culture medium consisted of minimal essential medium supplemented with 2% of heat-inactivated fetal calf serum, 0.04% gentamycin (50 mg/mL) and 2 mM of L-glutamine. Vero cells, obtained from ECACC, were suspended in culture medium and 75 μL/well was added in 96-well plates (10000 cells/well), which already contain the antiviral compounds. […] In addition, each plate contains wells which are assigned as virus controls (containing cells and virus in the absence of compound) and cell controls (containing cells in the absence of virus and compound). Once the cells were added in the plates, the plates were incubated in a fully humidified incubator (37° C., 5% CO2) until the next day. Dengue viruses serotype-1, 2, 3 and 4 were diluted in order to obtain a Cp of ˜22-24 in the assay. Therefore, 25 μL of virus suspension was added to all the wells containing test compound and to the wells assigned as virus control. In parallel, 25 μL of culture medium was added to the cell controls. Next, the plates were incubated for 3 days in a fully humidified incubator (37° C., 5% CO2). After 3 days, the supernatant was removed from the wells and the cells were washed twice with ice-cold PBS (˜100 μL). The cell pellets within the 96-well plates were stored at −80° C. for at least 1 day. Next, RNA was extracted using the Cells-to-CT™ lysis kit, according to the manufacturer's guideline (Life Technologies). The cell lysates can be stored at −80C or immediately used in the reverse transcription step.
(§3) In preparation of the reverse transcription step, mix A (table 3A) was prepared and 7.57 μL/well was dispensed in a 96-well plate. After addition of 5 μL of the cell lysates, a five minute denaturation step at 75° C. was performed (table 3B). Afterwards, 7.43 μL of mix B was added (table 3C) and the reverse transcription step was initiated (table 3D) to generate cDNA.
(§4) Finally, a RT-qPCR mix was prepared, mix C (table 4A), and 22.02 μL/well was dispensed in 96-well LightCycler qPCR plates to which 3 μL of cDNA was added and the qPCR was performed according to the conditions in table 4B on a LightCycler 480.
(§5) Using the LightCycler software and an in-house LIMS system, dose response curves for each compound were calculated and the half maximal effective concentration (EC50) and the half maximal cytotoxic concentration (CC50) were determined (Tables 5-8).

DENV-2 16681 strain = experiment: microbe, parasite or virus in culture; assay type: cell-based, Dengue virus; details: for pEC50: DENV-2 16681 eGFP, Vero cells, MOI 0.5, 3 days; for SI: SI=CC50/EC50, DENV-2 antiviral assay
Vero cells = details: African green monkey
DENV-1 strain TC974#666 = experiment: Tetravalent RT-qPCR assay, serotype 1; assay type: cell-based, Dengue virus; details: RT-qPCR serotype 1 TC974#666, Vero cells
Protocol: as §1, §2, §3, §4, §5

DENV-3 strain H87 = experiment: Tetravalent RT-qPCR assay, serotype 3; assay type: cell-based, Dengue virus; details: RT-qPCR serotype 3 H87, Vero cells
Protocol: as §1, §2, §3, §4, §5

DENV-2 strain 16681 = experiment: Tetravalent RT-qPCR assay, serotype 2; assay type: cell-based, Dengue virus; details: RT-qPCR serotype 2 16681, Vero cells
Protocol: as §1, §2, §3, §4, §5

Structure (SMILES) | pEC50 (DENV-4 strain H241) | pEC50 (DENV-2 16681 strain) | SI (DENV-2 16681 strain) | CC50 (Vero cells) | pEC50 (DENV-1 strain TC974#666) | pEC50 (DENV-3 strain H87) | pEC50 (DENV-2 strain 16681) | pEC50 (DENV-4 strain H241; Dengue virus, DENV4, Vero) | pEC50 (DENV-1 strain TC974#666; Dengue virus, DENV1, Vero) | pEC50 (DENV-3 strain H87; Dengue virus, DENV3, Vero) | pEC50 (DENV-2 strain 16681; Dengue virus, DENV2, Vero)
COc1cc(NC(C(=O)N2CCc3ccc(OC(F)(F)F)cc32)c2ccc(Cl)cc2OC)cc(OCC2CC2C(=O)O)c1 (stereo not drawn) [Compound 19AB] | 9.16 | 10.92 | >390600 | 12000 nM | 10.68 | 9.85 | 10.85 | – | – | – | –
COc1cc(CCCC(=O)O)cc(NC(C(=O)N2CCc3ccc(OC(F)(F)F)cc32)c2ccc(Cl)cc2)c1 (single isomer, unassigned) [Compound 15B] | – | 9.35 | 24900 | 12000 nM | – | – | – | 7.46 | 9.62 | 8.55 | 9.64
COc1cc(NC(C(=O)N2CCc3ccc(OC(F)(F)F)cc32)c2ccc(Cl)cc2)cc(OCC(C)CC(=O)O)c1 (single isomer, unassigned) [Compound 4D] | 7.59 | 9.77 | 81200 | 13000 nM | 9.64 | 8.64 | 9.89 | – | – | – | –
COc1cc(NC(C(=O)N2CCc3ccc(OC(F)(F)F)cc32)c2ccc(Cl)cc2)cc(OC2CC(C(=O)O)C2)c1 (stereo not drawn) [Compound 8B] | 8.89 | 10.64 | >102836 | 14000 nM | 10.49 | 9.80 | 10.60 | – | – | – | –
COc1cc(NC(C(=O)N2CCc3ccc(OC(F)(F)F)cc32)c2ccc(Cl)cc2)cc(OCC2(F)CC2C(=O)O)c1 (stereo not drawn) [Compound 28AB] | 7.16 | 9.17 | 19000 | 13000 nM | 9.39 | 8.28 | 9.51 | – | – | – | –
COc1cc(NC(C(=O)N2CCc3ccc(OC(F)(F)F)cc32)c2ccc(Cl)cc2OC)cc(OCCC(C)(C)C(=O)O)c1 (single isomer, unassigned) [Compound 18B] | – | 9.55 | 62700 | 12000 nM | – | – | – | 7.48 | 9.26 | 8.37 | 9.47
COc1cc(NC(C(=O)N2CCc3ccc(OC(F)(F)F)cc32)c2ccc(Cl)cc2)cc(OC2CC(C(=O)O)C2)c1 (stereo not drawn) [Compound 7B] | 7.89 | 9.92 | 121027 | 13000 nM | 9.82 | 8.74 | 9.92 | – | – | – | –
COc1cc(NC(C(=O)N2CCc3ccc(OC(F)(F)F)cc32)c2ccc(Cl)cc2OC)cc(OCC2CC2C(=O)O)c1 (stereo not drawn) [Compound 19BB] | 8.17 | 10.42 | >148612 | 8800 nM | 10.04 | 9.07 | 10.11 | – | – | – | –
COc1cc(NC(C(=O)N2CCc3ccc(OC(F)(F)F)cc32)c2ccc(Cl)cc2)cc(OCC2CC(C(=O)O)C2)c1 (stereo not drawn) [Compound 11B] | 7.77 | 9.96 | 118692 | 11000 nM | 9.70 | 8.74 | 10.00 | – | – | – | –
COc1cc(NC(C(=O)N2CCc3ccc(OC(F)(F)F)cc32)c2ccc(Cl)cc2)cc(OCC2CC2C(=O)O)c1 (stereo not drawn) [Compound 6AB] | 8.54 | 10.80 | >199223 | 12000 nM | 10.66 | 9.89 | 10.77 | – | – | – | –
COc1cc(NC(C(=O)N2CCc3cc(OC)c(C(F)(F)F)cc32)c2ccc(Cl)cc2)cc(OCCC(C)(C)C(=O)O)c1 (single isomer, unassigned) [Compound 21B] | – | 9.49 | 45200 | 12000 nM | – | – | – | 7.32 | 9.00 | 8.19 | 9.80
COc1cc(NC(C(=O)N2CCc3ccc(OC(F)(F)F)cc32)c2ccc(Cl)cc2)cc(OCC2(F)CC2C(=O)O)c1 (stereo not drawn) [Compound 29AB] | 7.46 | 9.28 | 22300 | 12000 nM | 9.64 | 8.34 | 9.60 | – | – | – | –
COc1cc(NC(C(=O)N2CCc3ccc(OC(F)(F)F)cc32)c2ccc(Cl)cc2)cc(OCCC(C)C(=O)O)c1 (single isomer, unassigned) [Compound 1D] | 7.62 | 9.64 | 57700 | 12000 nM | 9.57 | 8.47 | 9.64 | – | – | – | –
COc1cc(NC(C(=O)N2CCc3cc(F)c(OC(F)(F)F)cc32)c2ccc(Cl)cc2)cc(OC2CC(C(=O)O)C2)c1 (single isomer, unassigned) [Compound 27B] | – | 10.66 | >205482 | 13000 nM | – | – | – | 9.09 | 10.89 | 10.04 | 10.85
COc1cc(NC(C(=O)N2CCc3ccc(OC(F)(F)F)cc32)c2ccc(Cl)cc2OC)cc(OCCC(C)C(=O)O)c1 (single isomer, unassigned) [Compound 17C] | – | 9.64 | 39300 | 12000 nM | – | – | – | 7.80 | 9.72 | 8.44 | 9.96
COc1cc(NC(C(=O)N2CCc3ccc(OC(F)(F)F)cc32)c2ccc(Cl)cc2)cc(OCC2CC2C(=O)O)c1 (stereo not drawn) [Compound 6BB] | 7.70 | 9.74 | 83800 | 12000 nM | 9.89 | 8.80 | 9.92 | – | – | – | –
COc1cc(NC(C(=O)N2CCc3cc(OC)c(C(F)(F)F)cc32)c2ccc(Cl)cc2)cc(OCC2CC(C(=O)O)C2)c1 (stereo not drawn) [Compound 25B] | 7.26 | 9.55 | 52900 | 13000 nM | 8.89 | 8.20 | 9.57 | – | – | – | –
COc1cc(NC(C(=O)N2CCc3cc(OC)c(C(F)(F)F)cc32)c2ccc(Cl)cc2)cc(OCC2CC2C(=O)O)c1 (stereo not drawn) [Compound 22BB] | 7.15 | 9.34 | 27600 | 14000 nM | 8.82 | 8.05 | 9.48 | – | – | – | –
COc1cc(NC(C(=O)N2CCc3ccc(OC(F)(F)F)cc32)c2ccc(Cl)cc2)cc(OCC2CC(C(=O)O)C2)c1 (stereo not drawn) [Compound 10B] | – | 9.96 | 109987 | 11000 nM | – | – | – | 7.66 | 9.57 | 8.54 | 9.96
COc1cc(NC(C(=O)N2CCc3cc(F)c(OC(F)(F)F)cc32)c2ccc(Cl)cc2)cc(OCC2CC(C(=O)O)C2)c1 (stereo not drawn) [Compound 31A] | 7.77 | 9.70 | 70300 | 12000 nM | 9.72 | 8.82 | 9.96 | – | – | – | –
COc1cc(NC(C(=O)N2CCc3ccc(OC(F)(F)F)cc32)c2ccc(Cl)cc2)cc(OC23CC(C(=O)O)(C2)C3)c1 (single isomer, unassigned) [Compound 9B] | – | 9.41 | 32500 | 12000 nM | – | – | – | 7.44 | 9.09 | 8.10 | 9.30
